This note sets out measurements from patent publication US10420341B2, “Herbicidal phenylpyrimidines” (BASF SE, priority 2015, dated 2019).

Molecules are shown by their SMILES.

The test system of one test is APESV. Description: greenhouse pre-emergence herbicidal test. The test is classed as in vivo, Apera spica-venti. The conditions noted are these: pre-emergence method, application rate 500 g/ha, scale from 0 to 100. The gist of the method:
(§1)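 Damage was rated on a 0 to 100 scale, where 0 is normal growth and 100 is no emergence or full destruction of aerial parts, after 2 to 4 weeks. Treatment was applied pre-emergence, right after sowing, as an aqueous suspension or emulsion via fine nozzles.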

In test [1] the test system is ECHCG. Description: greenhouse post-emergence herbicidal test. Particulars: post-emergence method, application rate 500 g/ha, scale from 0 to 100. The test is classed as in vivo, Echinocloa crus-galli. Summed up:
(§2)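 Post-emergence; plants at 3–15 cm, treated with aqueous suspension/emulsion of compound. 10–25 °C or 20–35 °C per species, 2–4 wk. Score 0 (no damage) to 100 (aerial parts destroyed).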

Test [2] relates to ALOMY. Kind of test: greenhouse pre-emergence herbicidal test. The test is classed as in vivo, Alopercurus myosuroides. Particulars: pre-emergence method, application rate 500 g/ha, scale from 0 to 100. From the text:
The seeds of the test plants were sown separately for each species. For the pre-emergence treatment, the active ingredients, which had been suspended or emulsified in water, were applied directly after sowing by means of finely distributing nozzles. The containers were irrigated gently to promote germination and growth and subsequently covered with transparent plastic hoods until the plants had rooted. This cover caused uniform germination of the test plants, unless this had been impaired by the active ingredients. Depending on the species, the plants were kept at 10-25° C. or 20-35° C., respectively. The test period extended over 2 to 4 weeks. During this time, the plants were tended, and their response to the individual treatments was evaluated. Evaluation was carried out using a scale from 0 to 100. 100 means no emergence of the plants, or complete destruction of at least the aerial moieties, and 0 means no damage, or normal course of growth. […] The plants used in the greenhouse experiments were of the following species: [table]

The test system of test [3] is ALOMY. Kind of test: greenhouse post-emergence herbicidal test. The test is classed as in vivo, Alopercurus myosuroides. The conditions noted are these: post-emergence method, application rate 500 g/ha, scale from 0 to 100. Summed up:
as §2

Test [4] deals with ECHCG. Kind of test: greenhouse pre-emergence herbicidal test. The test is classed as in vivo, Echinocloa crus-galli. The conditions noted are these: pre-emergence method, application rate 500 g/ha, scale from 0 to 100. Summed up: as §1
The subject of the next test is AMARE. Description: greenhouse post-emergence herbicidal test. The test is classed as in vivo, Amaranthus retroflexus. Particulars: post-emergence method, application rate 500 g/ha, scale from 0 to 100. Summed up:
as §2

A further test has as its system POLCO. Kind of test: greenhouse post-emergence herbicidal test. The conditions noted are these: post-emergence method, application rate 500 g/ha, scale from 0 to 100. The test is classed as in vivo, Polygonum convolvulus. An excerpt: The seeds of the test plants were sown separately for each species. For the post-emergence treatment, the test plants were first grown to a height of 3 to 15 cm, depending on the plant habit, and only then treated with the active ingredients which had been suspended or emulsified in water. For this purpose, the test plants were either sown directly and grown in the same containers, or they were first grown separately as seedlings and transplanted into the test containers a few days prior to treatment. Depending on the species, the plants were kept at 10-25° C. or 20-35° C., respectively. The test period extended over 2 to 4 weeks. During this time, the plants were tended, and their response to the individual treatments was evaluated. Evaluation was carried out using a scale from 0 to 100. 100 means no emergence of the plants, or complete destruction of at least the aerial moieties, and 0 means no damage, or normal course of growth. […] The plants used in the greenhouse experiments were of the following species: [table]

With `O=C(O)c1nc(C2CC2)ncc1-c1ccccc1F` [example 132], the “herbicidal activity against APESV” value in the test with APESV is given as “very good (a very good herbicidal activity is given at values of at least 85)”. In addition, the “herbicidal activity against ECHCG” value with ECHCG [1] and with ECHCG [4] was “very good (a very good herbicidal activity is given at values of at least 85)” throughout. Further, the “herbicidal activity against ALOMY” value with ALOMY [2] and with ALOMY [3] was “very good (a very good herbicidal activity is given at values of at least 85)” throughout.
`O=C(O)c1nc(C2CC2)ncc1-c1cc(F)ccc1Cl` [example 142]: in the test on APESV, the “herbicidal activity against APESV” value was “very good (a very good herbicidal activity is given at values of at least 85)”. Moreover, the “herbicidal activity against ECHCG” value in the test with ECHCG [1] and with ECHCG [4] was “very good (a very good herbicidal activity is given at values of at least 85)” in each case. Moreover, the “herbicidal activity against ALOMY” value in the test with ALOMY [2] and with ALOMY [3] was “very good (a very good herbicidal activity is given at values of at least 85)” each time.
For `O=C(O)c1nc(C2CC2)ncc1-c1ccc(F)cc1Cl` [example 146], the “herbicidal activity against APESV” value in the test on APESV is on record as “very good (a very good herbicidal activity is given at values of at least 85)”. In addition, the “herbicidal activity against ALOMY” value in the test with ALOMY [2] and in the test with ALOMY [3] was “very good (a very good herbicidal activity is given at values of at least 85)” throughout. In addition, in the test with ECHCG [4], the “herbicidal activity against ECHCG” value is “very good (a very good herbicidal activity is given at values of at least 85)”.
For `O=C(O)c1nc(C2CC2)ncc1-c1ccccc1Br` [example 152], in the test with APESV, the “herbicidal activity against APESV” value is given as “very good (a very good herbicidal activity is given at values of at least 85)”. Moreover, the “herbicidal activity against AMARE” value in the test with AMARE is on record as “good (A good herbicidal activity is given at values of at least 70)”. Also, the “herbicidal activity against ALOMY” value in the test on ALOMY [2] was “good (A good herbicidal activity is given at values of at least 70)”. Moreover, the “herbicidal activity against ECHCG” value in the test on ECHCG [4] was “very good (a very good herbicidal activity is given at values of at least 85)”.
Take `Cc1cccc(C)c1-c1cnc(C2CC2)nc1C(=O)O` [example 162]: the “herbicidal activity against APESV” value in the test on APESV was “very good (a very good herbicidal activity is given at values of at least 85)”. Moreover, the “herbicidal activity against ECHCG” value in the test with ECHCG [1] and with ECHCG [4] was “very good (a very good herbicidal activity is given at values of at least 85)” throughout. In addition, the “herbicidal activity against ALOMY” value in the test on ALOMY [2] and in the test on ALOMY [3] was “very good (a very good herbicidal activity is given at values of at least 85)” each time.
For the compound `Cc1ccc(Cl)cc1-c1cnc(C2CC2)nc1C(=O)O` [example 164], the “herbicidal activity against APESV” value with APESV is listed as “very good (a very good herbicidal activity is given at values of at least 85)”. The “herbicidal activity against ECHCG” value with ECHCG [1] and in the test on ECHCG [4] was “very good (a very good herbicidal activity is given at values of at least 85)” throughout. Moreover, the “herbicidal activity against ALOMY” value with ALOMY [2] was “very good (a very good herbicidal activity is given at values of at least 85)”. In addition, in the test on POLCO, the “herbicidal activity against POLCO” value is on record as “very good (a very good herbicidal activity is given at values of at least 85)”.
For `COC(=O)c1nc(C2CC2)ncc1-c1ccccc1F` [example 190], in the test on APESV, the “herbicidal activity against APESV” value is listed as “very good (a very good herbicidal activity is given at values of at least 85)”. In addition, the “herbicidal activity against ALOMY” value in the test with ALOMY [2] is recorded as “very good (a very good herbicidal activity is given at values of at least 85)”. Further, the “herbicidal activity against POLCO” value with POLCO is reported as “good (A good herbicidal activity is given at values of at least 70)”. In the test with ECHCG [4], the “herbicidal activity against ECHCG” value is given as “very good (a very good herbicidal activity is given at values of at least 85)”.
For the compound `COC(=O)c1nc(C2CC2)ncc1-c1cc(F)ccc1Cl` [example 203], the “herbicidal activity against APESV” value in the test with APESV is recorded as “very good (a very good herbicidal activity is given at values of at least 85)”. Also, the “herbicidal activity against ECHCG” value in the test on ECHCG [1] and in the test on ECHCG [4] was “very good (a very good herbicidal activity is given at values of at least 85)” throughout. Further, the entries for the “herbicidal activity against ALOMY” value with ALOMY [2] and in the test on ALOMY [3] were “very good (a very good herbicidal activity is given at values of at least 85)” and “good (A good herbicidal activity is given at values of at least 70)”, respectively.
Take `COC(=O)c1nc(C2CC2)ncc1-c1cc(C)ccc1Cl` [example 205]: the “herbicidal activity against APESV” value with APESV is given as “very good (a very good herbicidal activity is given at values of at least 85)”. Also, the “herbicidal activity against ECHCG” value with ECHCG [1] and in the test on ECHCG [4] was “very good (a very good herbicidal activity is given at values of at least 85)” each time. For the same compound, the “herbicidal activity against ALOMY” value in the test on ALOMY [2] and with ALOMY [3] was “good (A good herbicidal activity is given at values of at least 70)” throughout.
Take `COC(=O)c1nc(C2CC2)ncc1-c1ccc(F)cc1Cl` [example 207]: the “herbicidal activity against APESV” value in the test on APESV is given as “very good (a very good herbicidal activity is given at values of at least 85)”. Further, the “herbicidal activity against ALOMY” value is recorded as “very good (a very good herbicidal activity is given at values of at least 85)” with ALOMY [2] and “good (A good herbicidal activity is given at values of at least 70)” in the test with ALOMY [3]. Besides, in the test with ECHCG [4], the “herbicidal activity against ECHCG” value is reported as “very good (a very good herbicidal activity is given at values of at least 85)”.
Turning to `COC(=O)c1nc(C2CC2)ncc1-c1ccccc1Br` [example 213], the “herbicidal activity against APESV” value with APESV is listed as “very good (a very good herbicidal activity is given at values of at least 85)”. Moreover, the “herbicidal activity against ECHCG” value in the test with ECHCG [1] is “good (A good herbicidal activity is given at values of at least 70)”; in the test on ECHCG [4], “very good (a very good herbicidal activity is given at values of at least 85)”. Besides, the “herbicidal activity against ALOMY” value with ALOMY [2] is listed as “very good (a very good herbicidal activity is given at values of at least 85)”; in the test with ALOMY [3], “good (A good herbicidal activity is given at values of at least 70)”.
For the compound `COC(=O)c1nc(C2CC2)ncc1-c1cc(Cl)ccc1C` [example 227], the “herbicidal activity against APESV” value with APESV is “very good (a very good herbicidal activity is given at values of at least 85)”. For the same compound, the “herbicidal activity against ECHCG” value in the test with ECHCG [1] and in the test with ECHCG [4] was “very good (a very good herbicidal activity is given at values of at least 85)” each time. The “herbicidal activity against ALOMY” value with ALOMY [2] and in the test on ALOMY [3] was “very good (a very good herbicidal activity is given at values of at least 85)” each time.
Consider `COC(=O)c1nc(C2CC2)ncc1-c1cc(C)c(F)cc1C` [example 230], for which, in the test with APESV, the “herbicidal activity against APESV” value is given as “very good (a very good herbicidal activity is given at values of at least 85)”. Moreover, the “herbicidal activity against ECHCG” value in the test with ECHCG [1] and in the test on ECHCG [4] was “very good (a very good herbicidal activity is given at values of at least 85)” throughout. For the same compound, the “herbicidal activity against ALOMY” value in the test on ALOMY [2] and in the test on ALOMY [3] was “good (A good herbicidal activity is given at values of at least 70)” each time.
